Columns and labels:
[1] = system: PC-3 cells, melanoma and other cancer cell lines; assay: Cancer cell proliferation and survival (BrdUrd, WST-1, caspase-3; FIG. 2); type: cell-based
Description: A, PC-3 cells were treated for 27 h with 100 μmol/L LPA in the presence or absence of various concentrations of CCG-1423, labeled with BrdUrd, and stained, and absorbance was read 450 nm. B, various cell lines were treated with […] LPA with or without […] CCG-1423, and then on day 8, WST-1 absorbance was read at 450 nm Black columns indicate four melanoma lines with differing expression of RhoC (A375M2 and SK-MeI-147 have high expression, whereas the parental line A375 (used to derive A375M2) and SK-Mel-28 have lower expression); gray columns indicate several other cancer cell lines; white column indicates the nontransformed fibroblast line WI-38. C, A375 and A375M2 cells were treated with 3 μmol/L CCG-1423 or 3 μmol/L daunorubicin for 25 h, and then caspase-3 activity was measured with a fluorescent substrate (Z0DEVD0R110) using excitation at 485 nm and emission detection at 520 nm. In A and C, data are expressed as a percentage of the no FBS control. In B, data are expressed as percentage of the LPA+DMSO control. All data represent n=3.

[2] = system: PC-3 prostate cancer cells; assay: Matrigel invasion, spontaneous (FIG. 3); type: cell-based, human; details: 3 μmol/L, spontaneous invasion through Matrigel
Description: A, LPA stimulates invasion of SKOV-3 but not PC-3 cells. Invasion of Matrigel®-coated filters by serum-starved PC-3 prostate cancer or SKOV-3 ovarian cancer cells were measured with or without 30 μmol/L LPA as chemoattractant. B, CCG-1423 inhibits PC-3 cell invasion, whereas PTX inhibits SKOV-3 cell invasion. The effects of CCG-1423 (3 μmol/L) and PTX (100 ng/mL) on spontaneous (PC-3) or LPA-stimulated (SKOV-3) invasion through Matrigel® were measured. In B, data are expressed as a percentage of control. All data represent n=3.

[3] = system: TK-Renilla luciferase reporter; assay: TK-Renilla (pRL-TK) luciferase reporter, indicator of non-specific compound effects; type: cell-based, human; details: 10 μM, PC-3 cells, 19 hrs
Description: (§1) Dual Luciferase Assay: Seed PC-3 prostate cancer cells (40,000 cells/well) were grown in 96-well plates in 10% FBS containing DMEM medium. Cells were transiently transfected with the Gα12QL activator of the Rho/MKL1 pathway, along with the SRE.L-firefly luciferase reporter construct for 6 hours. Additionally, cells were co-transfected with the TK-Renilla luciferase reporter as an indicator of non-specific compound effects. Various concentrations of selected compounds were added to the 96-well plates. Plates were incubated for 19 hours at 37° C. and 5% CO2 in 0.5% FBS containing DMEM medium. Cells were lysed with 1X Passive Lysis Buffer (Promega). Plates were incubated for 30 minutes at room temperature. Luminescence counts were read with a Victor2 (Perkin-Elmer) plate reader.

Rho/MKL1 pathway = assay: SRE.L-firefly luciferase reporter (dual luciferase assay), Gα12QL-transfected PC-3 cells; type: cell-based, human; details: 19 hrs
Description: as §1

[4] = In vivo studies using CCG-1423
[5] = system: PC-3 prostate cancer cells; assay: WST1 cell viability assay; type: cell-based, human; details: 10 μM, PC-3 cells, just before lysis
Description: WST1 Cell Viability Assay: One hour prior to cell lysis for the dual luciferase assay, 10 μl per well of WST1 reagent (Roche) was added to the 96-well plates. Plates were incubated for 1 hour at 37° C. and 5% CO2. Cell viability was measured by WST1 absorbance at 450 nm with a Victor2 (Perkin-Elmer) plate reader.

[6] = system: Rho/MKL1 mediated transcription; details: read-out: IC50 for blocking gene transcription; cited from earlier work
[7] = system: Rho-expressing prostate cancer and melanoma cell lines; details: read-out: IC50 for inhibiting DNA synthesis, cell growth and survival, and Matrigel invasion; cited from earlier work

In the case of `CC(ONC(=O)c1cc(C(F)(F)F)cc(C(F)(F)F)c1)C(=O)Nc1ccc(Cl)cc1` (stereo not drawn) [CCG-1423], the “cancer cell proliferation and survival” value [1] is reported as “inhibits”, the PC-3 cell invasion [2] is reported as “inhibits” and the “% inh PRL-TK (10 μM)” value [3] is reported as 48, ND %. For the same compound, the “% inh SRE.L (10 μM)” value (Rho/MKL1 pathway; 10 μM, DMSO alone = 0%) was 74, ND %, the IC50 (Rho/MKL1 pathway) was 1.5 µM and the in vivo toxicity [4] was “limited by non-specific toxicity”. The “% inh WST-1 (10 μM)” value [5] was 44, ND %, the IC50 [6] was 1 µM and the IC50 [7] was 1 µM.

Reference: patent US20120252792A1, “METHODS AND COMPOSITIONS FOR MODULATING RHO-MEDIATED GENE TRANSCRIPTION” (THE REGENTS OF THE UNIVERSITY OF MICHIGAN, priority 2009, published 2012)
